{
  "source": "patent US6150393A",
  "about": "(priority 1999, dated 2000)",
  "key": {"5HT2 receptors [1]": {"test_system": "5HT2 receptors", "experiment": "DOI locomotor activity test in rats (DOI inhibition study), intraperitoneal test compound", "type": "in vivo, rat (male Sprague-Dawley)", "conditions": "i.p. 30 min before DOI (0.3 mg/kg s.c.)", "description": "(§1) FIG. 3 provides a graphic summary of dose-response results from in vivo analysis of compound 116082 in a 1-(2,5-dimethoxy-4-iodophenyl)-2-aminopropane (\"DOI\") inhibition study (fine movement; ambulation; and animal rearing outcome measures). 116082 was administered 30 min prior to DOI. Animals were placed in locomotor activity cages 10 min after DOI administration and activity was measured for 10 min. Results are presented as total activity counts over the 10 min of exposure to the locomotor activity apparatus.\nas §1, with “FIG. 4” for “FIG. 3”, “compound 116081” for “compound 116082”, “a DOI” for “a 1-(2,5-dimethoxy-4-iodophenyl)-2-aminopropane (\"DOI\")”, “measures). 116081” for “measures). 116082”\nAssessment of 5-HT2 receptor antagonism in vivo was made by using the DOI locomotor activity test in rats as described by Krebs-Thomson (Psychopharmacology, 140:69-74, 1998).\nMotor function was assessed by using automated locomotor activity cages. The rats were placed in a standard rodent cage surrounded by photocell beams, which allow for automated recording of motor activity. […]"}, "[2]": {"experiment": "Bar catalepsy test in rats (extrapyramidal side effect analysis)", "type": "in vivo, rat (male Sprague-Dawley)"}, "[3]": {"test_system": "human mutated 5HT2A receptor, AP-3", "experiment": "Receptor-mediated inositol phosphate (IP3) accumulation, AP-3", "type": "cell-based", "description": "On day one, 1×10^7 293 cells per 150 mm plate were plated out. On day two, two reaction tubes were prepared (the proportions to follow for each tube are per plate): tube A was prepared by mixing 20 μg DNA (e.g., pCMV vector; pCMV vector AP-1 cDNA, etc.) in 1.2 ml serum free DMEM (Irvine Scientific, Irvine, Calif.); tube B was prepared by mixing 120 μl lipofectamine (Gibco BRL) in 1.2 ml serum free DMEM. Tubes A and B were then admixed by inversions (several times), followed by incubation at room temperature for 30-45 min. The admixture is referred to as the \"transfection mixture\". Plated 293 cells were washed with 1×PBS, followed by addition of 10 ml serum free DMEM. 2.4 ml of the transfection mixture was then added to the cells, followed by incubation for 4 hrs at 37° C./5% CO2. On day 3, cells were trypsinized and counted, followed by plating of 1×10^6 cells/well (poly D-lysine treated 12-well plates). Cells were permitted to adhere to the wells, followed by one wash with 1×PBS. Thereafter, 0.5 μCi ^3 H-inositol in 1 ml inositol-free DMEM was added per well. Protocol B.\nOn day 4, the cells were washed with 0.5 ml PBS and then 0.45 ml of assay medium was added containing inositol-free/serum free media, 10 μM pargyline, 10 mM lithium chloride, or 0.4 ml of assay medium and 50 ul of 10× ketanserin (ket) to a final concentration of 10 μM. The cells were then incubated for 30 minutes at 37° C. Then the cells were washed with 0.5 ml PBS and 200 ul of fresh/ice cold stop solution (1M KOH; 18 mM Na-borate; 3.8 mM EDTA) was added/well. The solution was kept on ice for 5-10 minutes or until the cells were lysed and then neutralized by 200 μl of fresh/ice cold neutralization sol. (7.5% HCL). The lysate was then transferred into 1.5 ml microcentrifuge tubes and 1 ml of chloroform/methanol (1:2) was added/tube. The solution was vortexed for 15 seconds and the upper phase was applied to a Biorad AG1-X8 anion exchange resin (100-200 mesh). The resin was washed with water and 0.9 ml of the upper phase was loaded onto the column. The column was washed with 10 mls of 5 mM myo-inositol and 10 ml of 5 mM Na-borate/60 mM Na-formate. The inositol trisphosphates were eluted into scintillation vials containing 10 ml of scintillation cocktail with 2 ml of 0.1 M formic acid/1 M ammonium formate. The columns were regenerated by washing with 10 ml of 0.1 M formic acid/3M ammonium formate and rinsed twice with dd H2 O and stored at room temperature in water.\nCandidate compound identified in the assays of Examples 9a-9c were then evaluated for inositol phosphate accumulation, following the protocol of Example 5 ([…] expressing human mutated 5HT2A receptor, AP-3), modified as follows: tube A was prepared by mixing 16 μg DNA (e.g., pCMV vector; pCMV vector AP-1 cDNA, etc.) in 1.0 ml serum free DMEM (Irvine Scientific, Irvine, Calif.); tube B was prepared by mixing 60 μl lipofectamine (Gibco BRL) in 1.0 ml serum free DMEM. Tubes A and B were then admixed by inversions (several times), followed by incubation at room temperature for 30 min. The admixture is referred to as the \"transfection mixture\". Plated 293 cells were washed with 10 ml Serum Free DMEM, followed by addition of 11 ml Serum Free DMEM. 2.0 ml of the transfection mixture was then added to the cells, followed by incubation for 5 hrs at 37° C./5% CO2. On day 3, cells were trypsinized and counted, followed by plating of 1×10^6 cells/well (12-well plates). Cells were permitted to adhere to the wells for 8 hrs, followed by one wash with 1×PBS. Thereafter, 0.5 μCi ^3 H-inositol in 1 ml inositol-free DMEM was added per well.\nOn day 4, the cells were washed with 1.5 ml PBS and then 0.9 ml of assay medium was added containing inositol-free/serum free media, 10 μM pargyline, 10 mM lithium chloride, for 5 min in 37° C./5% CO2 followed by 100 μl addition of candidate compound diluted in the same material. The cells were then incubated for 120 minutes at 37° C. […]"}, "5HT2 receptors [4]": {"test_system": "5HT2 receptors", "experiment": "DOI inhibition study in rats, oral administration of test compound (oral availability)", "type": "in vivo, rat", "description": "(§2) FIG. 6 provides a graphic summary of the effects of oral administration of 116082 and 116081 in a DOI inhibition study in rats. Values represent the mean±SEMs (n=6/group). #P<0.05 vs. vehicle/vehicle, *P<0.05 vs. vehicle/DOI, Student t-test.\n(§3) Based upon the in vivo data developed, oral bioavailability of compounds […] was considered. The compounds were administered by oral gavage at a dose of 50 mg/kg, 30 min prior to DOI in rats (see Example 11A, supra). Animals were placed in the locomotor activity cages 10 min after DOI administration and activity was measured for 10 min. Results, presented in FIG. 6, provide total activity counts over the 10 min of exposure to the locomotor activity apparatus."}, "[5]": {"experiment": "DOI inhibition study in rats, oral administration of test compound (oral availability)", "type": "in vivo, rat", "conditions": "in vivo; rat; 50 mg/kg oral vs 10 mg/kg i.p., inferred from DOI test", "description": "as §2, §3"}, "[6]": {"test_system": "human 5HT2A receptor compared with human 5HT2C receptor", "experiment": "Selectivity for 5HT2A over 5HT2C receptor (as measured by IC50 values)", "type": "binding"}, "5HT2 receptors [7]": {"test_system": "5HT2 receptors", "conditions": "peripheral administration, 0.3 mg/kg; cited from earlier work"}, "[8]": {"conditions": "rodents; cited from earlier work"}, "[9]": {"type": "in vivo, rat (male Sprague-Dawley)", "conditions": "i.p.; total activity counts over 120 min after MK-801", "description": "FIG. 7 provides a graphic summary of the reversal of MK-801-induced hyperactivity using 116081 (7A) and clozapine (7B). […] 116081 produced a significant reversal of the effect of MK-801 at a dose of 25 μmol/kg (10 mg/kg). Results are presented as total activity counts over the 120 min of exposure to the locomotor activity apparatus after administration of MK-801. Data (mean±SEM) were analyzed by ANOVA followed by Dunnett's test (n=6-8/group).\nBecause part of the symptomatology of schizophrenia may be related to altered glutamate transmission at the NMDA receptor, the reversal of MK-801-induced hyperlocomotor activity in rodents has been used routinely as an animal model for detecting potential antipsychotic activity (O'Neill et al., Pharmacology Biochem. Behav., 63: 237-243, 1999). Thus, this test was used to determine potential antipsychotic properties of 116081 in vivo.\nMotor activity was assessed using automated locomotor activity cages as described above (Example 11(A), supra.). Male Sprague-Dawley rats (250-350 g body weight) were administered test compounds (i.p.) and placed in the locomotor activity cages for 30 min of habituation. Following habituation,animals were administered MK-801 (0.5 μmol/kg=0.17 mg/kg, s.c.) and then immediately placed back into the locomotor activity cages, and activity was measured for 120 min. A reversal of MK-801-induced motor activity (as shown by a significant […] of ambulation) in rats is considered to be predictive of the ability of the test compound to reverse psychotic symptoms."}},
  "data": [
    {"molecule": "Cn1cc(Br)c(-c2cccc(NC(=O)Nc3ccc(F)cc3)c2)n1", "note": "[Compound 116082, {[3-(4-bromo-1-methylpyrazol-3-yl)phenyl]amino}-N-(4-fluorophenyl)carboxamide]", "values": [
      {"measurement": "reversal of DOI-induced motor dysfunction", "setting": "5HT2 receptors [1]", "value": "beneficially reverses DOI-induced motor dysfunction"},
      {"measurement": "extra-pyramidal side effects", "setting": "[2]; at a dose 8 times greater than the dose required to block 5HT2A receptors in vivo", "value": "does not induce extra-pyramidal side effects in rats"},
      {"measurement": "induction of catalepsy", "setting": "[2]; i.p., 10 to 80 mg/kg", "value": "does not induce catalepsy in rats"},
      {"measurement": "time spent on the bar", "setting": "[2]; i.p., 10 to 80 mg/kg, 60 min before test", "value": "did not induce a dose-dependent increase in time spent on the bar"},
      {"measurement": "selectivity ratio", "setting": "[2]; rat, in vivo, ip, bar test versus DOI test, rats, read-out: dose without extra-pyramidal side effects relative to dose required to block 5HT2A receptors in vivo", "value": 8},
      {"measurement": "IP3 % of Control", "setting": "[3]; 10 μM test compound, triplicate, control without test compound", "value": 11, "unit": "%"},
      {"measurement": "profile in in vitro functional assays", "setting": "[3]; in vitro functional assays", "value": "selective 5HT2A inverse agonist properties"},
      {"measurement": "oral efficacy compared with intraperitoneal administration", "setting": "5HT2 receptors [4]; 50 mg/kg oral vs 10 mg/kg i.p.", "value": "as efficacious as a 10 mg/kg dose of the same compounds administered intraperitoneally"},
      {"measurement": "reversal of DOI-induced motor dysfunction, oral", "setting": "5HT2 receptors [4]; oral gavage 50 mg/kg, 30 min prior to DOI", "value": "reversed DOI-induced motor dysfunction in rats"},
      {"measurement": "oral activity", "setting": "5HT2 receptors [4]; rat, DOI test, 50 mg/kg oral", "value": "orally active"},
      {"measurement": "bioavailability", "setting": "[5]", "value": "≥ 20", "unit": "%"},
      {"measurement": "selectivity preference for the 5HT2A receptor compared with the 5HT2C receptor", "setting": "[6]", "value": 100, "unit": "fold"}
    ]},
    {"molecule": "COc1cc(CC(C)N)c(OC)cc1I", "note": "(stereo not drawn) [DOI, 1-(2,5-dimethoxy-4-iodophenyl)-2-aminopropane]", "values": [
      {"measurement": "motor function effect of DOI alone", "setting": "5HT2 receptors [7]", "value": "produces motor dysfunction in rats as shown by a decrease in ambulation"}
    ]},
    {"molecule": "C[C@]12N[C@H](Cc3ccccc31)c1ccccc12", "note": "[MK-801]", "values": [
      {"measurement": "effect of MK-801 alone on locomotor activity and stereotypy", "setting": "[8]", "value": "induces significant increases in locomotor activity and stereotypy"}
    ]},
    {"molecule": "CN1CCN(C2=Nc3cc(Cl)ccc3Nc3ccccc32)CC1", "note": "[clozapine, reference compound]", "values": [
      {"measurement": "attenuation of MK-801-induced hyperactivity (ambulations)", "setting": "[9]", "value": "dose-dependently attenuated MK801-induced hyperactivity"}
    ]}
  ]
}
